Measured values as given in the supplement of paper PMC10307832.

What was measured:
Experiment in all cases: relative viability (nuclei count vs DMSO), 5 days (fraction); higher = more cells survive
NCI-H2347 = test system: NCI-H2347
Summary of the method: (§1)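 Cells from lung cancer lines were seeded into 1536-well plates and, one day later, dosed by pin tool. Treatments were either a single drug or a fixed dose of an anchor drug with five library-drug doses (not always all listed) in √10 steps. After 5 days, nuclei were stained in a one-step fixation (final 0.05% Triton X-100, 1% formaldehyde, 1 ug/ml Hoechst) and counted on 4× images, and relative viability is the treated-to-vehicle nuclei ratio, as the median of duplicate plates.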

EMC-BAC-2 = test system: EMC-BAC-2
Summary of the method: as §1

NCI-H2087 = test system: NCI-H2087
Summary of the method: as §1

NCI-H650 = test system: NCI-H650
Summary of the method: as §1

HARA = test system: HARA
Summary of the method: as §1

NCI-H23 = test system: NCI-H23
Summary of the method: as §1

HCC-44 = test system: HCC-44
Summary of the method: as §1

NCI-H596 = test system: NCI-H596
Summary of the method: as §1

NCI-H2126 = test system: NCI-H2126
Summary of the method: as §1

LOU-NH91 = test system: LOU-NH91
Summary of the method: as §1

NCI-H1993 = test system: NCI-H1993
Summary of the method: as §1

LCLC-103H = test system: LCLC-103H
Summary of the method: as §1

NCI-H647 = test system: NCI-H647
Summary of the method: as §1

NCI-H3122 = test system: NCI-H3122
Summary of the method: as §1

NCI-H441 = test system: NCI-H441
Summary of the method: as §1

NCI-H838 = test system: NCI-H838
Summary of the method: as §1

BEN = test system: BEN
Summary of the method: as §1

NCI-H727 = test system: NCI-H727
Summary of the method: as §1

NCI-H2023 = test system: NCI-H2023
Summary of the method: as §1

201T = test system: 201T
Summary of the method: as §1

COc1nc(C)cnc1NS(=O)(=O)c1cccnc1-c1ccc(-c2nnco2)cc1 [Zibotentan] + C[C@@H](Oc1cc(-c2cnn(C3CCNCC3)c2)cnc1N)c1c(Cl)ccc(F)c1Cl [Crizotinib] (partner 1 µM)
relative viability (NCI-H2347; first compound 0.08 µM): 0.706
relative viability (NCI-H2347; first compound 0.253 µM): 0.476
relative viability (NCI-H2347; first compound 0.8 µM): 0.715
relative viability (NCI-H2347; first compound 2.53 µM): 0.672
relative viability (EMC-BAC-2; first compound 0.08 µM): 0.843
relative viability (EMC-BAC-2; first compound 0.253 µM): 0.751
relative viability (EMC-BAC-2; first compound 0.8 µM): 0.778
relative viability (EMC-BAC-2; first compound 2.53 µM): 0.754
relative viability (NCI-H2087; first compound 0.08 µM): 0.881
relative viability (NCI-H2087; first compound 0.253 µM): 1.07
relative viability (NCI-H2087; first compound 0.8 µM): 0.984
relative viability (NCI-H2087; first compound 2.53 µM): 0.928
relative viability (NCI-H650; first compound 0.08 µM): 0.856
relative viability (NCI-H650; first compound 0.253 µM): 0.661
relative viability (NCI-H650; first compound 0.8 µM): 0.705
relative viability (NCI-H650; first compound 2.53 µM): 0.792
relative viability (HARA; first compound 0.08 µM): 1.03
relative viability (HARA; first compound 0.253 µM): 0.993
relative viability (HARA; first compound 0.8 µM): 1.02
relative viability (HARA; first compound 2.53 µM): 1.18
relative viability (NCI-H23; first compound 0.08 µM): 0.54
relative viability (NCI-H23; first compound 0.253 µM): 0.552
relative viability (NCI-H23; first compound 0.8 µM): 0.565
relative viability (NCI-H23; first compound 2.53 µM): 0.593
relative viability (HCC-44; first compound 0.08 µM): 0.777
relative viability (HCC-44; first compound 0.253 µM): 0.761
relative viability (HCC-44; first compound 0.8 µM): 0.872
relative viability (HCC-44; first compound 2.53 µM): 0.772
relative viability (NCI-H596; first compound 0.08 µM): 0.942
relative viability (NCI-H596; first compound 0.253 µM): 0.898
relative viability (NCI-H596; first compound 0.8 µM): 0.989
relative viability (NCI-H596; first compound 2.53 µM): 0.957
relative viability (NCI-H2126; first compound 0.08 µM): 1.01
relative viability (NCI-H2126; first compound 0.253 µM): 0.94
relative viability (NCI-H2126; first compound 0.8 µM): 0.992
relative viability (NCI-H2126; first compound 2.53 µM): 1.05
relative viability (LOU-NH91; first compound 0.08 µM): 0.742
relative viability (LOU-NH91; first compound 0.253 µM): 0.717
relative viability (LOU-NH91; first compound 0.8 µM): 0.758
relative viability (LOU-NH91; first compound 2.53 µM): 0.729
relative viability (NCI-H1993; first compound 0.253 µM): 0.915
relative viability (NCI-H1993; first compound 0.8 µM): 0.73
relative viability (NCI-H1993; first compound 2.53 µM): 1.04
relative viability (LCLC-103H; first compound 0.08 µM): 0.932
relative viability (LCLC-103H; first compound 0.253 µM): 0.965
relative viability (LCLC-103H; first compound 0.8 µM): 0.97
relative viability (LCLC-103H; first compound 2.53 µM): 1.05
relative viability (NCI-H647; first compound 0.08 µM): 1.04
relative viability (NCI-H647; first compound 0.253 µM): 1.06
relative viability (NCI-H647; first compound 0.8 µM): 1.18
relative viability (NCI-H647; first compound 2.53 µM): 1.23
relative viability (NCI-H3122; first compound 0.08 µM): 0.259
relative viability (NCI-H3122; first compound 0.253 µM): 0.234
relative viability (NCI-H3122; first compound 0.8 µM): 0.269
relative viability (NCI-H3122; first compound 2.53 µM): 0.282
relative viability (NCI-H441; first compound 0.08 µM): 0.772
relative viability (NCI-H441; first compound 0.253 µM): 0.599
relative viability (NCI-H441; first compound 0.8 µM): 0.982
relative viability (NCI-H441; first compound 2.53 µM): 0.898
relative viability (NCI-H838; first compound 0.08 µM): 0.918
relative viability (NCI-H838; first compound 0.253 µM): 0.826
relative viability (NCI-H838; first compound 0.8 µM): 0.82
relative viability (NCI-H838; first compound 2.53 µM): 0.848
relative viability (BEN; first compound 0.08 µM): 0.803
relative viability (BEN; first compound 0.253 µM): 0.724
relative viability (BEN; first compound 0.8 µM): 0.989
relative viability (BEN; first compound 2.53 µM): 1.02
relative viability (NCI-H727; first compound 0.08 µM): 0.985
relative viability (NCI-H727; first compound 0.253 µM): 0.825
relative viability (NCI-H727; first compound 0.8 µM): 0.806
relative viability (NCI-H727; first compound 2.53 µM): 0.844
relative viability (NCI-H2023; first compound 0.08 µM): 0.605
relative viability (NCI-H2023; first compound 0.253 µM): 0.475
relative viability (NCI-H2023; first compound 0.8 µM): 0.72
relative viability (NCI-H2023; first compound 2.53 µM): 0.631
relative viability (201T; first compound 0.08 µM): 1.03
relative viability (201T; first compound 0.253 µM): 0.992
relative viability (201T; first compound 0.8 µM): 1.04
relative viability (201T; first compound 2.53 µM): 1.07
